Results published in PMC6905855, “Agonist-specific voltage-dependent gating of lysosomal two-pore Na^+ channels” (eLife, 2019).
Values joined by “and” are separate entries in the source; they are usually repeats but may differ in a detail not shown here. Identical values can stand only once. Counter-ions that a name gives are not always drawn. Like-named read-outs stand apart in the source and are kept apart here. Values belong to the molecule of their own block, whether it stands above or below them.

Columns and labels:
[1] = molecular target: T1, surface-expressing mutant TPC2 channel (TPC2^LL/AA) in HEK293 cells (Homo sapiens, UniProt Q8NHX9, L11A/L12A); assay: Whole-cell recordings of ITPC2-LL/AA; format: cell-based; conditions: for I-TPC2: preliminary whole-cell test of positive LOPAC hits, HEK293 cells overexpressing TPC2 LL/AA, voltage ramp -140 to +100 mV (200 ms), measured at -140 mV; for activation of whole-cell ITPC2-LL/AA (in words): bath application, symmetric Na^+, 100 µM where stated; for current density: whole cell recordings, individual recordings; for EC50: whole-cell recordings at −140 mV, TPC2^LL/AA-transfected HEK293 cells
T1 construct: expressed in transfected cells; host or cells: HEK293
From the text: We therefore characterized the responses of TPC2 channels to TCAs in detail using electrophysiological methods. We first performed whole-cell recordings in HEK293 cells that were transfected with surface-expressed TPC2 mutant channels (TPC2-L^11L^12-AA; abbreviated as TPC2^LL/AA hereafter).
All TPC1 and TPC2 mutants were generated with a site-directed mutagenesis kit (Qiagen) using EGFP- human TPC1 and TPC2 as the templates. All constructs were confirmed by DNA sequencing.
Cells were transfected with Lipofectamine 2000 (Invitrogen). After culture media were refreshed 18–24 hr post-transfection, cells were used for the electrophysiological assays 24–36 hr post-transfection.
All bath solutions were applied via a perfusion system that allowed complete solution exchange within a few seconds. […] Whole-cell currents were digitized at 10 kHz and filtered at 2 kHz.

hTPC2 = molecular target: T2, hTPC2 (Homo sapiens, UniProt Q8NHX9); assay: Whole-endolysosome recordings of ITPC2; format: biochemical; design: Whole endo-lysosomal TPC2 current activated by LyNa-VAs, Test 3 / Whole endo-lysosomal TPC2 current activated by LyNa-VAs, mean: unit not given here; conditions: for Whole endo-lysosomal TPC2 current activated by LyNa-VAs, mean: mean of n tests; for ITPC2: whole endolysosome recordings with 100 µM of LyNa-VAs at −120 mV
T2 construct: expressed in transfected cells; host or cells: Cos1 and HEK293
T2 sequence (Q8NHX9 whole entry): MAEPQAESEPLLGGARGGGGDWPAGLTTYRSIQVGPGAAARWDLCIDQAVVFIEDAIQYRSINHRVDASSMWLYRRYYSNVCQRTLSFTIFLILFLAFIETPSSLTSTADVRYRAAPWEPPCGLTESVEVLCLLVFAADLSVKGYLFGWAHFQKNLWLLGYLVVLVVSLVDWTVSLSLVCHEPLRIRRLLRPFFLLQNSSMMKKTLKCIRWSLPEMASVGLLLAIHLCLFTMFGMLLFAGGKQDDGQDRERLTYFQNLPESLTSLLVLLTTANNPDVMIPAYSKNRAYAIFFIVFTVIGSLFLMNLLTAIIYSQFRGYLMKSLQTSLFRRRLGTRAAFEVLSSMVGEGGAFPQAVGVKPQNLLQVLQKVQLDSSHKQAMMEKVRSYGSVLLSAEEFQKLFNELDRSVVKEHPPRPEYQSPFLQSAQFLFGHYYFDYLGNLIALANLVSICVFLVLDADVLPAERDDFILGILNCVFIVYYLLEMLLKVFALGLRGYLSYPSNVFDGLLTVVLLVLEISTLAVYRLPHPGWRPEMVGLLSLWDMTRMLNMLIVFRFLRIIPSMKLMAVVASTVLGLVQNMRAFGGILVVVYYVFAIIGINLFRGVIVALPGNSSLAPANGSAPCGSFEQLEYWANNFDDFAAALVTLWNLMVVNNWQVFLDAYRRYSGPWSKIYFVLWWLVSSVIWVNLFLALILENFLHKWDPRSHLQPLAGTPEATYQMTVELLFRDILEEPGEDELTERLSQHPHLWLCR

T1 sequence (Q8NHX9 whole entry L11A/L12A): as the sequence (Q8NHX9 whole entry) above, with L11A, L12A counted along it

Compound: CN(C)c1cc2c(Nc3ccc4c(cnn4Cc4ccccc4)c3)ncnc2cn1
I-TPC2 [1]: No activation

Compound: C[N+](C)(C)CC#CCN1CCCC1=O
I-TPC2 [1]: No activation

Compound: C#CCOC(=O)C1=CCCN(C)C1 [Arecaidine propargyl ester]
I-TPC2 [1]: No activation

Compound: COC(=O)C1=CCCN(C)C1 [Arecoline]
I-TPC2 [1]: No activation

Compound: CC(C[N+](C)(C)C)OC(N)=O (stereo not drawn) [Bethanechol chloride]
I-TPC2 [1]: No activation

Compound: C[N+](C)(C)CCOC(N)=O [Carbachol]
I-TPC2 [1]: No activation

Compound: CN(C)C(=O)C(CCN1CCC(O)(c2ccc(Cl)cc2)CC1)(c1ccccc1)c1ccccc1 [Loperamide]
I-TPC2 [1]: No activation

Compound: CNCCC=C1c2ccccc2CCc2ccccc21 [LyNa-VA1.5, Nortriptyline]
current density ([1]; 10 µM): 7.1 pA/pF and 35.8727 pA/pF and 7.336 pA/pF and 16.5636 pA/pF
current density ([1]; 20 µM): 6.773 pA/pF and 73.7727 pA/pF and 24.3182 pA/pF
current density ([1]; 50 µM): 14.0091 pA/pF and 121.209 pA/pF and 89.9 pA/pF
current density ([1]; 100 µM): 57.6545 pA/pF and 164.355 pA/pF and 160.345 pA/pF and 75.7909 pA/pF
current density ([1]; 200 µM): 154.282 pA/pF and 191.036 pA/pF and 204.236 pA/pF and 114.582 pA/pF
current density ([1]; 400 µM): 180.164 pA/pF
EC50 ([1]; read-out: EC50): 52 ± 10 µM
ITPC2 (hTPC2): 1916 ± 361 pA

Compound: CNCCC=C1c2ccccc2CCc2ccccc21 [LyNa-VA1.5/nortriptyline]
Whole endo-lysosomal TPC2 current activated by LyNa-VAs, Test 1 (hTPC2; 100uM, individual recording): 1814.6
Whole endo-lysosomal TPC2 current activated by LyNa-VAs, Test 2 (hTPC2; 100uM, individual recording): 1075.1
Whole endo-lysosomal TPC2 current activated by LyNa-VAs, Test 3 (hTPC2; 100uM, individual recording): 1937.9
Whole endo-lysosomal TPC2 current activated by LyNa-VAs, Test 4 (hTPC2; 100uM, individual recording, Test 4): 2836.3
Whole endo-lysosomal TPC2 current activated by LyNa-VAs, mean (hTPC2; 100uM): 1916.0

Compound: CC(=O)OC(C)C[N+](C)(C)C (stereo not drawn) [Methacholine chloride]
I-TPC2 [1]: No activation

Compound: C[C@@H]1O[C@H](C[N+](C)(C)C)C[C@H]1O [Muscarine]
I-TPC2 [1]: No activation

Compound: c1ccc2c(c1)Nc1ccccc1S2 [Phenothiazine]
activation of whole-cell ITPC2-LL/AA (in words) [1]: no significant activation
current density ([1]; 10 µM): 10.2273 pA/pF and 10.0273 pA/pF and 9.7 pA/pF
current density ([1]; 20 µM): 11.0091 pA/pF and 7.509 pA/pF and 8.936 pA/pF
current density ([1]; 50 µM): 10.7545 pA/pF and 9.7 pA/pF and 10.2182 pA/pF
current density ([1]; 100 µM): 9.9 pA/pF and 8.064 pA/pF and 9.882 pA/pF
current density ([1]; 200 µM): 10.0545 pA/pF and 9.218 pA/pF and 9.555 pA/pF
EC50 [1]: No activation
Whole endo-lysosomal TPC2 current activated by LyNa-VAs, Test 1 (hTPC2; 100uM, individual recording): 10.3
Whole endo-lysosomal TPC2 current activated by LyNa-VAs, Test 2 (hTPC2; 100uM, individual recording): -2.6
Whole endo-lysosomal TPC2 current activated by LyNa-VAs, Test 3 (hTPC2; 100uM, individual recording): 4.8
Whole endo-lysosomal TPC2 current activated by LyNa-VAs, mean (hTPC2; 100uM): 4.2
ITPC2 (hTPC2): No activation

Compound: CC(=O)NBr [n-Bromoacetamide]
I-TPC2 [1]: No activation

Continued, in another order:

I-TPC2 [1]: ~1000 pA
Compound: CN(C)CCC=C1c2ccccc2CCc2ccccc21 [Amitriptyline hydrochloride]

activation of whole-cell ITPC2-LL/AA (in words) [1]: no significant activation
activation of whole-cell ITPC2-LL/AA (in words) ([1]; listed as carbamazepine): not by carbamazepine
EC50 [1]: No activation
Whole endo-lysosomal TPC2 current activated by LyNa-VAs, Test 1 (hTPC2; 100uM, individual recording): -17
Whole endo-lysosomal TPC2 current activated by LyNa-VAs, Test 2 (hTPC2; 100uM, individual recording): 9.3
Whole endo-lysosomal TPC2 current activated by LyNa-VAs, Test 3 (hTPC2; 100uM, individual recording): 23.1
Whole endo-lysosomal TPC2 current activated by LyNa-VAs, mean (hTPC2; 100uM): 5.1
ITPC2 (hTPC2): No activation
Compound: NC(=O)N1c2ccccc2C=Cc2ccccc21 [Carbamazepine]
current density ([1]; 5 µM): 8.018 pA/pF and 9.073 pA/pF and 6.645 pA/pF
current density ([1]; 10 µM): 8.227 pA/pF and 9.227 pA/pF and 5.436 pA/pF
current density ([1]; 20 µM): 8.573 pA/pF and 9.164 pA/pF and 6.418 pA/pF
current density ([1]; 50 µM): 8.8 pA/pF and 8.755 pA/pF and 6.073 pA/pF
current density ([1]; 100 µM): 7.691 pA/pF and 8.973 pA/pF and 5.518 pA/pF
current density ([1]; 200 µM): 7.464 pA/pF and 9.855 pA/pF and 6.164 pA/pF
current density ([1]; 400 µM): 8.109 pA/pF and 8.755 pA/pF and 7.1 pA/pF

I-TPC2 [1]: >1500 pA
Compound: CN(C)CCCN1c2ccccc2Sc2ccc(Cl)cc21 [Chlorpromazine hydrochloride]

I-TPC2 [1]: No activation
Compound: CN(C)CCC[C@@]1(c2ccc(F)cc2)OCc2cc(C#N)ccc21 [Escitalopram]

I-TPC2 [1]: No activation
Compound: N=C(N)NC(=O)Cc1c(Cl)cccc1Cl [Guanfacine hydrochloride]

current density ([1]; 400 µM): 103.264 pA/pF
EC50 ([1]; read-out: EC50): 112 ± 1 µM
ITPC2 (hTPC2): 433 ± 94 pA
Compound: CN(C)CCCN1c2ccccc2CCc2ccccc21 [LyNa-VA1.3, Imipramine]
current density ([1]; 10 µM): 4.664 pA/pF and 36.5364 pA/pF and 8.182 pA/pF
current density ([1]; 20 µM): 6.518 pA/pF and 56.7909 pA/pF and 7.655 pA/pF
current density ([1]; 50 µM): 14.1182 pA/pF and 126.618 pA/pF and 15.6182 pA/pF
current density ([1]; 100 µM): 42.3 pA/pF and 158.945 pA/pF and 32.4364 pA/pF
current density ([1]; 200 µM): 99.9 pA/pF and 167.955 pA/pF and 41.0364 pA/pF

Whole endo-lysosomal TPC2 current activated by LyNa-VAs, Test 1 (hTPC2; 100uM, individual recording): 621.3
Whole endo-lysosomal TPC2 current activated by LyNa-VAs, Test 2 (hTPC2; 100uM, individual recording): 343.9
Whole endo-lysosomal TPC2 current activated by LyNa-VAs, Test 3 (hTPC2; 100uM, individual recording): 334.8
Whole endo-lysosomal TPC2 current activated by LyNa-VAs, mean (hTPC2; 100uM): 433.3
Compound: CN(C)CCCN1c2ccccc2CCc2ccccc21 [LyNa-VA1.3/imipramine]

activation of whole-cell ITPC2-LL/AA (in words) [1]: ITPC2 was evoked
current density ([1]; 5 µM): 12.4 pA/pF
current density ([1]; 400 µM): 179.973 pA/pF
EC50 ([1]; read-out: EC50): 102 ± 3 µM
ITPC2 (hTPC2): 876 ± 196 pA
Compound: CN(C)CCC=C1c2ccccc2CCc2ccccc21 [LyNa-VA1.4, Amitriptyline]
current density ([1]; 10 µM): 7.736 pA/pF and 9.045 pA/pF and 6.655 pA/pF and 9.464 pA/pF
current density ([1]; 20 µM): 11.0727 pA/pF and 11.9545 pA/pF and 11.2909 pA/pF and 11.6545 pA/pF
current density ([1]; 50 µM): 26.9364 pA/pF and 36.5091 pA/pF and 23.5818 pA/pF and 26.8545 pA/pF
current density ([1]; 100 µM): 95.0727 pA/pF and 115.527 pA/pF and 80.9273 pA/pF and 83.2 pA/pF
current density ([1]; 200 µM): 156.364 pA/pF and 155.436 pA/pF and 160.382 pA/pF and 158.109 pA/pF

Whole endo-lysosomal TPC2 current activated by LyNa-VAs, Test 1 (hTPC2; 100uM, individual recording): 1013.4
Whole endo-lysosomal TPC2 current activated by LyNa-VAs, Test 2 (hTPC2; 100uM, individual recording): 2019.9
Whole endo-lysosomal TPC2 current activated by LyNa-VAs, Test 3 (hTPC2; 100uM, individual recording): 268.2
Whole endo-lysosomal TPC2 current activated by LyNa-VAs, mean (hTPC2; 100uM): 1100.5
Compound: CN(C)CCCN1c2ccccc2Sc2ccc(Cl)cc21 [LyNa-VA2.1/chlorpromazine]

current density ([1]; 10 µM): 5.827 pA/pF and 3.645 pA/pF and 3 pA/pF
EC50 ([1]; read-out: EC50): 63 ± 2 µM
ITPC2 (hTPC2): 984 ± 294 pA
Compound: CN(C)CCCN1c2ccccc2Sc2ccc(C(F)(F)F)cc21 [LyNa-VA2.2, Triflupromazine]
current density ([1]; 20 µM): 9.373 pA/pF and 9.136 pA/pF and 3.482 pA/pF
current density ([1]; 50 µM): 33.1545 pA/pF and 26.4182 pA/pF and 44.2909 pA/pF
current density ([1]; 100 µM): 125.791 pA/pF and 49.7455 pA/pF and 115.618 pA/pF
current density ([1]; 200 µM): 155.109 pA/pF and 66.0091 pA/pF and 133.127 pA/pF

Whole endo-lysosomal TPC2 current activated by LyNa-VAs, Test 1 (hTPC2; 100uM, individual recording): 1572
Whole endo-lysosomal TPC2 current activated by LyNa-VAs, Test 2 (hTPC2; 100uM, individual recording): 698
Whole endo-lysosomal TPC2 current activated by LyNa-VAs, Test 3 (hTPC2; 100uM, individual recording): 681.2
Whole endo-lysosomal TPC2 current activated by LyNa-VAs, mean (hTPC2; 100uM): 983.7
Compound: CN(C)CCCN1c2ccccc2Sc2ccc(C(F)(F)F)cc21 [LyNa-VA2.2/triflupromazine]

I-TPC2 [1]: No activation
Compound: O=C(Nc1ccc([N+](=O)[O-])cc1Cl)c1cc(Cl)ccc1O [Niclosamide]

I-TPC2 [1]: No activation
Compound: CN1Cc2c(N)cccc2C(c2ccccc2)C1 (stereo not drawn) [Nomifensine maleate]

I-TPC2 [1]: No activation
Compound: CCCNCC(O)COc1ccccc1C(=O)CCc1ccccc1 (stereo not drawn) [Propafenone]

I-TPC2 [1]: ~1000 pA
Compound: CNCCCC1c2ccccc2C=Cc2ccccc21 [Protriptyline hydrochloride]

I-TPC2 [1]: No activation
Compound: CCN(CC)CCCC(C)Nc1c2ccc(Cl)cc2nc2ccc(OC)cc12 (stereo not drawn) [Quinacrine dihydrochloride dihydrate]

I-TPC2 [1]: >1500 pA
Compound: CN(C)CCCN1c2ccccc2Sc2ccc(C(F)(F)F)cc21 [Triflupromazine hydrochloride]

I-TPC2 [1]: No activation
Compound: CC(C)(C)c1cc(/C=C(\C#N)C(N)=S)cc(C(C)(C)C)c1O [Tyrphostin AG 879]

I-TPC2 [1]: No activation
Compound: N#C/C(=C\c1ccc(O)c(O)c1)C(=O)NCc1ccccc1 [Tyrphostin B42]
